From PubChem BioAssay AID330 (DTP/NCI, 2004)
Several values for one entry are separate records, joined by “and”; a condition that tells them apart may be missing. Identical values can stand only once. Inconclusive results and toxic doses are left out.

Tested on: P388 leukemia ip, CD2F1 mice, survival T/C
Experiment: NCI In Vivo Anticancer Drug Screen. Data for tumor model P388 Leukemia (intraperitoneal) in CD2F1 (CDF1) mice
Conditions: endpoint: median survival time, higher = longer survival
Outline: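 Mice carrying the transplanted tumor received test compound or vehicle. Survival was recorded in each group, and the value is the treated-group measurement divided by that of the vehicle-treated control group.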

[1] = dose: 50.0 mg/kg/injection, schedule: Q01DX009 (ip), vehicle: saline
[2] = dose: 100.0 mg/kg/injection, schedule: Q01DX009 (ip), vehicle: saline
[3] = dose: 200.0 mg/kg/injection, schedule: Q01DX009 (ip), vehicle: saline
[4] = dose: 60.0 mg/kg/injection, schedule: Q01DX005 (ip), vehicle: Klucel (hydroxypropylcellulose) (HPC)
[5] = dose: 120.0 mg/kg/injection, schedule: Q01DX005 (ip), vehicle: Klucel (hydroxypropylcellulose) (HPC)
[6] = dose: 50.0 mg/kg/injection, schedule: Q01DX005 (ip), vehicle: saline with Tween-80
[7] = dose: 100.0 mg/kg/injection, schedule: Q01DX005 (ip), vehicle: saline with Tween-80
[8] = dose: 200.0 mg/kg/injection, schedule: Q01DX005 (ip), vehicle: saline with Tween-80
[9] = dose: 50.0 mg/kg/injection, schedule: Q01DX009 (ip), vehicle: saline with Tween-80
[10] = dose: 100.0 mg/kg/injection, schedule: Q01DX009 (ip), vehicle: saline with Tween-80
[11] = dose: 200.0 mg/kg/injection, schedule: Q01DX009 (ip), vehicle: saline with Tween-80

In the case of `O=C(O)C(O)C(O)C1[O][Sb]([c]2ccc([N+](=O)[O-])cc2)[O]C1CO` (configuration not stated), the T/C (dose: 50.0 mg/kg/injection, schedule: Q01DX005 (ip), vehicle: saline) is reported as 98 % of control, the T/C (dose: 100.0 mg/kg/injection, schedule: Q01DX005 (ip), vehicle: saline) is reported as 107 % of control and the T/C (dose: 200.0 mg/kg/injection, schedule: Q01DX005 (ip), vehicle: saline) is reported as 118 % of control.
In the case of `CC(N)C(=O)O` (configuration not stated), the T/C [1] is reported as 115 % of control, the T/C [2] is reported as 105 % of control and the T/C [3] is reported as 106 % of control.
`N#CC1CCCC(C#N)N1Cc1ccccc1` (configuration not stated) was tested, and the T/C [4] was 110 % of control and the T/C [5] was 106 % of control.
With `CC(=O)OC1C(CO)OC2C1Oc1nc(=N)c(F)cn12` (configuration not stated) the T/C (dose: 0.39 mg/kg/injection, schedule: Q01DX009 (ip), vehicle: saline with Tween-80) was 116 % of control, the T/C (dose: 1.56 mg/kg/injection, schedule: Q01DX009 (ip), vehicle: saline with Tween-80) was 160 % of control and the T/C (dose: 3.13 mg/kg/injection, schedule: Q01DX009 (ip), vehicle: saline with Tween-80) was 91 % of control. For the same compound, the T/C (dose: 3.13 mg/kg/injection, schedule: Q01DX009 (ip), vehicle: saline) was 101 % of control, the T/C (dose: 6.25 mg/kg/injection, schedule: Q01DX009 (ip), vehicle: saline) was 87 % of control and 88 % of control and 93 % of control and the T/C (dose: 12.5 mg/kg/injection, schedule: Q01DX009 (ip), vehicle: saline) was 117 % of control. The T/C [1] was 161 % of control.
In the case of `COc1cc(CCNC(=O)CCN2C(=O)CCC2=O)cc(OC)c1OC`, the T/C [1] is reported as 104 % of control, the T/C [2] is reported as 100 % of control and the T/C [3] is reported as 103 % of control.
In the case of `CC(=O)Oc1ccccc1C(=O)OCc1ccccc1`, the T/C (dose: 50.0 mg/kg/injection, schedule: Q01DX005 (ip), vehicle: Klucel (hydroxypropylcellulose) (HPC)) is reported as 94 % of control, the T/C (dose: 100.0 mg/kg/injection, schedule: Q01DX005 (ip), vehicle: Klucel (hydroxypropylcellulose) (HPC)) is reported as 92 % of control and the T/C (dose: 200.0 mg/kg/injection, schedule: Q01DX005 (ip), vehicle: Klucel (hydroxypropylcellulose) (HPC)) is reported as 100 % of control.
With `C=C(C)[C@@H]1CC=C(C)[C@H](O)C1` the T/C [1] was 111 % of control, the T/C [2] was 102 % of control and the T/C [3] was 100 % of control.
For `C/C(N=NC(=S)N1CCCC(C)C1)=C1\C=CC=CN1O` (configuration not stated), the T/C [6] was 101 % of control, the T/C [7] was 98 % of control and the T/C [8] was 112 % of control.
In the case of `CCCCCCC(=O)/C=C/c1c(OC)cc(OC)cc1OC`, the T/C [9] is reported as 101 % of control, the T/C [10] is reported as 101 % of control and the T/C [11] is reported as 97 % of control.
For `Cn1c2ccccc2c2oc(-c3nn[nH]n3)cc(=O)c21`, the T/C [4] was 97 % of control, the T/C [5] was 105 % of control and the T/C (dose: 240.0 mg/kg/injection, schedule: Q01DX005 (ip), vehicle: Klucel (hydroxypropylcellulose) (HPC)) was 100 % of control.
With `O=C1c2ccccc2C(Cl)=C(Cl)C1(Cl)Cl` the T/C (dose: 12.5 mg/kg/injection, schedule: Q01DX009 (ip), vehicle: saline with Tween-80) was 104 % of control and the T/C (dose: 25.0 mg/kg/injection, schedule: Q01DX009 (ip), vehicle: saline with Tween-80) was 90 % of control.
In the case of `C[Si](C)(CCCNCCN)O[Si](C)(C)CCCNCCN`, the T/C (dose: 15.0 mg/kg/injection, schedule: Q01DX005 (ip), vehicle: saline with Tween-80) is reported as 104 % of control, the T/C (dose: 30.0 mg/kg/injection, schedule: Q01DX005 (ip), vehicle: saline with Tween-80) is reported as 118 % of control and the T/C (dose: 60.0 mg/kg/injection, schedule: Q01DX005 (ip), vehicle: saline with Tween-80) is reported as 94 % of control and 96 % of control.
For `CC(=O)N1CCc2cc(N)ccc21`, the T/C [9] was 95 % of control, the T/C [10] was 86 % of control and the T/C [11] was 90 % of control.
For `O=C(Cc1ccccc1)N1CCc2cc3c(cc2C1Cc1cc2c(cc1Br)OCO2)OCO3` (configuration not stated), the T/C (dose: 12.5 mg/kg/injection, schedule: Q01DX001 (ip), vehicle: saline + alcohol) was 98 % of control, the T/C (dose: 25.0 mg/kg/injection, schedule: Q01DX001 (ip), vehicle: saline + alcohol) was 99 % of control and the T/C (dose: 50.0 mg/kg/injection, schedule: Q01DX001 (ip), vehicle: saline + alcohol) was 100 % of control.
For `COC(=O)C1=C(C)NC(C)=C(C(=O)OC)C1c1cc2ccccc2nc1Cl`, the T/C [6] was 92 % of control, the T/C [7] was 88 % of control and the T/C [8] was 92 % of control.
